This test concerns the target T1, human amylin receptors (Homo sapiens, UniProt O60896+P30988).
T1 construct: host or cells: CHO-K1/Ga15/AMY3 cells, further stably transfected with a CRE-luciferase plasmid
T1 sequence (P30988 25-474): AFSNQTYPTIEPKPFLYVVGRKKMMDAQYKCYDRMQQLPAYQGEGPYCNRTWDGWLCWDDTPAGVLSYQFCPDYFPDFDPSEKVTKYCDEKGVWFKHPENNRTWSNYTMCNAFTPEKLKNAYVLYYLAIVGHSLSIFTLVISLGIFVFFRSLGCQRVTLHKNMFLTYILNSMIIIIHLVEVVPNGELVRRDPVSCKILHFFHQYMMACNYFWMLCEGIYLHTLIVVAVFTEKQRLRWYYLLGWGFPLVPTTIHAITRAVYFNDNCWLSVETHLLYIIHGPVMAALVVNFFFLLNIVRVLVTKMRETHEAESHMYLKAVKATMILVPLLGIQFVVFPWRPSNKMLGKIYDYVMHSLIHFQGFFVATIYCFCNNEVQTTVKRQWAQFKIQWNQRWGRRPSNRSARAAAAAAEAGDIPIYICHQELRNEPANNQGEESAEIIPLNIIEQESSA
T1 sequence (O60896 24-148 partner): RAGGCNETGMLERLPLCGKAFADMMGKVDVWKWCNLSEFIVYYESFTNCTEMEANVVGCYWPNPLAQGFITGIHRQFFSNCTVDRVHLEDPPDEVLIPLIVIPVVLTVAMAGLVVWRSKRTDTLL
Briefly: Luciferase assay in stably transfected amylin receptor/CRE-luc CHO cell line. The format is cell-based. The conditions noted are these: for Relative activity: EC50 ratio of Cagrilintide to the compound, Cagrilintide 100%; for EC50: amylin receptor/CRE-luc CHO cells, 24 hours incubation, luminescence.

This is an account of results in patent publication US20260265329A1, “POLYPEPTIDE AND DERIVATIVE THEREOF, COMPOSITION, AND USE THEREOF” (HANGZHOU SCIWIND BIOSCIENCES CO., LTD., priority 2023, published 2026).

The EC50 is the concentration needed to bring the measured effect to its halfway point. A lower EC50 goes with a more potent agent.

Starred links: 1 amine or outer side, 2 acyl side, 3 side chain; linkers in the order of their positions; H or OH if unused. Non-standard residues stand in square brackets, D forms with d. Residues, ends and D or L forms follow the SMILES beside them. *: point of attachment. C20 diacid = O=C(O)CCCCCCCCCCCCCCCCCCC(=O)*; γGlu = O=C(O)[C@H](CCC(=O)[*:2])N[*:1]; βAsp = O=C(O)[C@H](CC(=O)[*:2])N[*:1]; Hyp = O=C(O)[C@@H]1C[C@@H](O)CN1; Trx = NC[C@H]1CC[C@H](C(=O)O)CC1; AEEA = NCCOCCOCC(=O)O; Inp = O=C(O)C1CCNCC1

Take `CC[C@H](C)[C@H](NC(=O)[C@H](CC(=O)O)NC(=O)[C@H](CCCNC(=N)N)NC(=O)[C@H](CC(=O)O)NC(=O)[C@H](CCCNC(=N)N)NC(=O)[C@H](CC(=O)O)NC(=O)[C@@H](NC(=O)[C@H](Cc1ccccc1)NC(=O)[C@H](Cc1c[nH]cn1)NC(=O)[C@H](CCCNC(=N)N)NC(=O)[C@H](CC(C)C)NC(=O)[C@H](Cc1ccccc1)NC(=O)[C@H](CC(=O)O)NC(=O)[C@H](C)NC(=O)[C@H](CC(C)C)NC(=O)[C@H](CCCNC(=N)N)NC(=O)[C@H](CCC(N)=O)NC(=O)[C@@H](NC(=O)[C@H](C)NC(=O)[C@H](C)NC(=O)[C@@H](NC(=O)[C@H](CO)NC(=O)[C@H](CC(C)C)NC(=O)[C@H](CCC(N)=O)NC(=O)[C@H](CO)NC(=O)[C@H](C)NC(=O)COCCOCCNC(=O)COCCOCCNC(=O)COCCOCCNC(=O)COCCOCCNC(=O)COCCOCCNC(=O)COCCOCCNC(=O)CC[C@H](NC(=O)CCCCCCCCCCCCCCCCCCC(=O)O)C(=O)O)[C@@H](C)O)[C@@H](C)O)[C@@H](C)O)C(=O)N[C@@H](CC(C)C)C(=O)N1CCC[C@H]1C(=O)N1CCC[C@H]1C(=O)N[C@H](C(=O)N[C@@H](CC(N)=O)C(=O)N[C@H](C(=O)NCC(=O)N[C@@H](CO)C(=O)N[C@@H](CC(N)=O)C(=O)N[C@H](C(=O)N1CCC[C@H]1C(N)=O)[C@@H](C)O)C(C)C)[C@@H](C)O` [M25] ({C20 diacid-γGlu-AEEA-AEEA-AEEA-AEEA-AEEA-AEEA}-ASQLSTAATQRLADFLRHFTDRDRDILPPTNVGSNTP-NH2): the Relative activity came out at 25%.

Turning to `CC[C@H](C)[C@H](NC(=O)[C@@H]1CCCN1C(=O)[C@H](CCCCN)NC(=O)[C@H](CC(C)C)NC(=O)[C@H](CC(N)=O)NC(=O)[C@H](CC(N)=O)NC(=O)[C@H](CO)NC(=O)[C@H](CO)NC(=O)[C@H](Cc1c[nH]cn1)NC(=O)[C@H](CCCNC(=N)N)NC(=O)[C@H](CC(C)C)NC(=O)[C@H](Cc1ccccc1)NC(=O)[C@H](CC(=O)O)NC(=O)[C@H](C)NC(=O)[C@H](CC(C)C)NC(=O)[C@H](CCCNC(=N)N)NC(=O)[C@H](CCC(N)=O)NC(=O)[C@@H](NC(=O)[C@H](C)NC(=O)[C@H](C)NC(=O)[C@@H](NC(=O)[C@H](CO)NC(=O)[C@H](CC(C)C)NC(=O)[C@H](CCC(N)=O)NC(=O)[C@H](CO)NC(=O)[C@H](C)NC(=O)COCCOCCNC(=O)COCCOCCNC(=O)[C@H]1CC[C@H](CNC(=O)CCCCCCCCCCCCCCCCCCC(=O)O)CC1)[C@@H](C)O)[C@@H](C)O)C(=O)N[C@@H](CC(C)C)C(=O)N1CCC[C@H]1C(=O)N1CCC[C@H]1C(=O)N[C@H](C(=O)N[C@@H](CC(N)=O)C(=O)N[C@H](C(=O)NCC(=O)N[C@@H](CO)C(=O)N[C@@H](CC(N)=O)C(=O)N[C@H](C(=O)N1C[C@H](O)C[C@H]1C(N)=O)[C@@H](C)O)C(C)C)[C@@H](C)O` [M35] ({C20 diacid-Trx-AEEA-AEEA}-ASQLSTAATQRLADFLRHSSNNLKPILPPTNVGSNT[Hyp]-NH2), the Relative activity stood at 124%.

Take `CC[C@H](C)[C@H](NC(=O)[C@H](CC(=O)O)NC(=O)[C@H](CCCNC(=N)N)NC(=O)[C@H](CC(=O)O)NC(=O)[C@H](CCCNC(=N)N)NC(=O)[C@H](CC(=O)O)NC(=O)[C@@H](NC(=O)[C@H](Cc1ccccc1)NC(=O)[C@H](Cc1c[nH]cn1)NC(=O)[C@H](CCCNC(=N)N)NC(=O)[C@H](CC(C)C)NC(=O)[C@H](Cc1ccccc1)NC(=O)[C@H](CC(=O)O)NC(=O)[C@H](C)NC(=O)[C@H](CC(C)C)NC(=O)[C@H](CCCNC(=N)N)NC(=O)[C@H](CCC(N)=O)NC(=O)[C@@H](NC(=O)[C@H](C)NC(=O)[C@H](C)NC(=O)[C@@H](NC(=O)[C@H](CO)NC(=O)[C@H](CC(C)C)NC(=O)[C@H](CCC(N)=O)NC(=O)[C@H](CO)NC(=O)[C@H](C)NC(=O)C[C@H](NC(=O)CCCCCCCCCCCCCCCCCCC(=O)O)C(=O)O)[C@@H](C)O)[C@@H](C)O)[C@@H](C)O)C(=O)N[C@@H](CC(C)C)C(=O)N1CCC[C@H]1C(=O)N1CCC[C@H]1C(=O)N[C@H](C(=O)N[C@@H](CC(N)=O)C(=O)N[C@H](C(=O)NCC(=O)N[C@@H](CO)C(=O)N[C@@H](CC(N)=O)C(=O)N[C@H](C(=O)N1CCC[C@H]1C(N)=O)[C@@H](C)O)C(C)C)[C@@H](C)O` [M12] ({C20 diacid-βAsp}-ASQLSTAATQRLADFLRHFTDRDRDILPPTNVGSNTP-NH2): the Relative activity is 78% and the EC50 worked out at 34 pM.

Take `CC[C@H](C)[C@H](NC(=O)[C@H](CC(=O)O)NC(=O)[C@H](CCCNC(=N)N)NC(=O)[C@H](CC(=O)O)NC(=O)[C@H](CCCNC(=N)N)NC(=O)[C@H](CC(=O)O)NC(=O)[C@@H](NC(=O)[C@H](Cc1ccccc1)NC(=O)[C@H](Cc1c[nH]cn1)NC(=O)[C@H](CCCNC(=N)N)NC(=O)[C@H](CC(C)C)NC(=O)[C@H](Cc1ccccc1)NC(=O)[C@H](CC(=O)O)NC(=O)[C@H](C)NC(=O)[C@H](CC(C)C)NC(=O)[C@H](CCCNC(=N)N)NC(=O)[C@H](CCC(N)=O)NC(=O)[C@@H](NC(=O)[C@H](C)NC(=O)[C@H](C)NC(=O)[C@@H](NC(=O)[C@H](CO)NC(=O)[C@H](CC(C)C)NC(=O)[C@H](CCC(N)=O)NC(=O)[C@H](CO)NC(=O)[C@H](C)NC(=O)COCCOCCNC(=O)COCCOCCNC(=O)C1CCN(C(=O)CCCCCCCCCCCCCCCCCCC(=O)O)CC1)[C@@H](C)O)[C@@H](C)O)[C@@H](C)O)C(=O)N[C@@H](CC(C)C)C(=O)N1CCC[C@H]1C(=O)N1CCC[C@H]1C(=O)N[C@H](C(=O)N[C@@H](CC(N)=O)C(=O)N[C@H](C(=O)NCC(=O)N[C@@H](CO)C(=O)N[C@@H](CC(N)=O)C(=O)N[C@H](C(=O)N1CCC[C@H]1C(N)=O)[C@@H](C)O)C(C)C)[C@@H](C)O` [M21] ({C20 diacid-Inp-AEEA-AEEA}-ASQLSTAATQRLADFLRHFTDRDRDILPPTNVGSNTP-NH2): the Relative activity was 126% and the response was half-maximal at 23 pM (EC50).

Take `CC[C@H](C)[C@H](NC(=O)[C@H](CC(=O)O)NC(=O)[C@H](CCCNC(=N)N)NC(=O)[C@H](CC(=O)O)NC(=O)[C@H](CCCNC(=N)N)NC(=O)[C@H](CC(=O)O)NC(=O)[C@@H](NC(=O)[C@H](Cc1ccccc1)NC(=O)[C@H](Cc1c[nH]cn1)NC(=O)[C@H](CCCNC(=N)N)NC(=O)[C@H](CC(C)C)NC(=O)[C@H](Cc1ccccc1)NC(=O)[C@H](CC(=O)O)NC(=O)[C@H](C)NC(=O)[C@H](CC(C)C)NC(=O)[C@H](CCCNC(=N)N)NC(=O)[C@H](CCC(N)=O)NC(=O)[C@@H](NC(=O)[C@H](C)NC(=O)[C@H](C)NC(=O)[C@@H](NC(=O)[C@H](CO)NC(=O)[C@H](CC(C)C)NC(=O)[C@H](CCC(N)=O)NC(=O)[C@H](CO)NC(=O)[C@H](C)NC(=O)COCCOCCNC(=O)COCCOCCNC(=O)[C@H]1CC[C@H](CNC(=O)CCCCCCCCCCCCCCCCCCC(=O)O)CC1)[C@@H](C)O)[C@@H](C)O)[C@@H](C)O)C(=O)N[C@@H](CC(C)C)C(=O)N1CCC[C@H]1C(=O)N1CCC[C@H]1C(=O)N[C@H](C(=O)N[C@@H](CC(N)=O)C(=O)N[C@H](C(=O)NCC(=O)N[C@@H](CO)C(=O)N[C@@H](CC(N)=O)C(=O)N[C@H](C(=O)N1CCC[C@H]1C(N)=O)[C@@H](C)O)C(C)C)[C@@H](C)O` [M20] ({C20 diacid-Trx-AEEA-AEEA}-ASQLSTAATQRLADFLRHFTDRDRDILPPTNVGSNTP-NH2): the Relative activity was 171%.

In the case of `CC[C@H](C)[C@H](NC(=O)[C@H](CC(=O)O)NC(=O)[C@H](CCCNC(=N)N)NC(=O)[C@H](CC(=O)O)NC(=O)[C@H](CCCNC(=N)N)NC(=O)[C@H](CC(=O)O)NC(=O)[C@@H](NC(=O)[C@H](Cc1ccccc1)NC(=O)[C@H](Cc1c[nH]cn1)NC(=O)[C@H](CCCNC(=N)N)NC(=O)[C@H](CC(C)C)NC(=O)[C@H](Cc1ccccc1)NC(=O)[C@H](CC(=O)O)NC(=O)[C@H](C)NC(=O)[C@H](CC(C)C)NC(=O)[C@H](CCCNC(=N)N)NC(=O)[C@H](CCC(N)=O)NC(=O)[C@@H](NC(=O)[C@H](C)NC(=O)[C@H](C)NC(=O)[C@@H](NC(=O)[C@H](CO)NC(=O)[C@H](CC(C)C)NC(=O)[C@H](CCC(N)=O)NC(=O)[C@H](CO)NC(=O)[C@H](C)NC(=O)COCCOCCNC(=O)COCCOCCNC(=O)C[C@H](NC(=O)CCCCCCCCCCCCCCCCCCC(=O)O)C(=O)O)[C@@H](C)O)[C@@H](C)O)[C@@H](C)O)C(=O)N[C@@H](CC(C)C)C(=O)N1CCC[C@H]1C(=O)N1CCC[C@H]1C(=O)N[C@H](C(=O)N[C@@H](CC(N)=O)C(=O)N[C@H](C(=O)NCC(=O)N[C@@H](CO)C(=O)N[C@@H](CC(N)=O)C(=O)N[C@H](C(=O)N1CCC[C@H]1C(N)=O)[C@@H](C)O)C(C)C)[C@@H](C)O` [M18] ({C20 diacid-βAsp-AEEA-AEEA}-ASQLSTAATQRLADFLRHFTDRDRDILPPTNVGSNTP-NH2), the Relative activity turned out to be 110%.
